Measured values taken from ChEMBL document CHEMBL1932973, “5- and 6-membered (thio)lactones are prodrug type carbonic anhydrase inhibitors” (Bioorg Med Chem Lett, 2012).

How the values were obtained:
[1] = molecular target: T1, Carbonic anhydrase 9 (Homo sapiens, UniProt Q16790); assay: Inhibition of human CA9 pre-incubated for 15 mins to 24 hrs measured after 6 hrs by phenol red-based stopped-flow CO2 hydrase assay
[2] = molecular target: T2, Carbonic anhydrase 2 (Homo sapiens, UniProt P00918); assay: Inhibition of human CA2 pre-incubated for 15 mins to 24 hrs measured after 6 hrs by phenol red-based stopped-flow CO2 hydrase assay
[3] = molecular target: T3, Carbonic anhydrase 1 (Homo sapiens, UniProt P00915); assay: Inhibition of human CA1 pre-incubated for 15 mins to 24 hrs measured after 6 hrs by phenol red-based stopped-flow CO2 hydrase assay
[4] = molecular target: T3, Carbonic anhydrase 1; assay: Inhibition of human CA1 pre-incubated for 15 mins to 24 hrs measured after 15 mins by phenol red-based stopped-flow CO2 hydrase assay
[5] = molecular target: T2, Carbonic anhydrase 2; assay: Inhibition of human CA2 pre-incubated for 15 mins to 24 hrs measured after 15 mins by phenol red-based stopped-flow CO2 hydrase assay
[6] = molecular target: T1, Carbonic anhydrase 9; assay: Inhibition of human CA9 pre-incubated for 15 mins to 24 hrs measured after 15 mins by phenol red-based stopped-flow CO2 hydrase assay

T3 sequence (P00915 whole entry): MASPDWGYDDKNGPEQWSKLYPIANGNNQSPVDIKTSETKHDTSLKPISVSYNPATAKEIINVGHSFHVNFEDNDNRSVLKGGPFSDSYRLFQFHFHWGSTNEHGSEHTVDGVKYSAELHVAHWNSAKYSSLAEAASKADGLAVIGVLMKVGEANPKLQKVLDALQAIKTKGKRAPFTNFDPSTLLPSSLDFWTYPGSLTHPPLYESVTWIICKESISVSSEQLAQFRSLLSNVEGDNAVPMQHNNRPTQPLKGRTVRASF

Structure (SMILES) | Ki [1] [µM] | Ki [2] [µM] | other results
S=c1cccco1 | 7.45 | > 100 | 
O=C1C=CCO1 [FURAN-2(5H)-ONE] |  | > 100 | 
Cc1cc(C)oc(=S)c1 | 9.51 | > 100 | 
O=C(O)/C=C/c1ccccc1O [O-COUMARIC ACID] | > 100 |  | Ki [3]: 3.4 µM
Cc1cc(C)oc(=O)c1 |  | > 100 | 
O=C1C=CCCO1 | 1.35 | > 100 | 
CC1CCC(=O)O1 (stereo unspecified) | 0.92 | > 100 | 
O=c1cccco1 | 1.6 | > 100 | 
COC1=CC(=O)OC1 | 3.38 | > 100 | 
O=C1CCCCO1 | 3.66 | > 100 | 
O=C(O)/C=C/CCO |  |  | Ki [4]: 8.46 µM; Ki [5]: > 100 µM; Ki [6]: 1.15 µM
